For the experiment, the target named is T1, DCAF1 WD40 domain (residues 1077-1390) (Homo sapiens, UniProt Q9Y4B6).
T1 construct: DCAF1 WD40 domain (residues 1077-1390)
In words: DCAF1 binding assay by SPR (Biacore 8K+), DCAF1-3 KD. The settings on record: 25 °C, read-out: DCAF1-3 SPR (KD).

T1 sequence (Q9Y4B6 1077-1390): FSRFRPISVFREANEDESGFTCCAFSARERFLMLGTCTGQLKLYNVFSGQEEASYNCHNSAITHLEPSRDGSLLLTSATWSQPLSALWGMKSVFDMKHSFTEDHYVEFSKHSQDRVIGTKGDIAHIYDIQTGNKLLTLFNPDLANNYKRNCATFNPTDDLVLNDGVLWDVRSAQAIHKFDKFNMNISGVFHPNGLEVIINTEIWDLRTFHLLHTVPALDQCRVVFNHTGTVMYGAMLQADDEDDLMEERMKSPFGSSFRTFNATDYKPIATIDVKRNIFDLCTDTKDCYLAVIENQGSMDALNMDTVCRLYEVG

With `NC(=O)C[C@@]1(NC(=O)c2c[nH]nc2-c2ccccc2F)CCCc2c(Cl)cccc21` [I-155], the Kd is over 200 µM. In the case of `COc1cc(N[C@@H]2CCCN(c3cccc(F)c3)C2)cc(N2CCOCC2)c1` [I-547], the Kd is over 200 µM. As to `NC(=O)C[C@H](NC(=O)C1=C(c2c(F)cccc2F)CNC1)c1cccc(Cl)c1` [I-586], the Kd was under 10 µM.

On to `C=CC(=O)N1CC(N(C)c2ccnc(N[C@@H]3CCCN(c4cccc(F)c4)C3)c2)C1` [I-457], for which the Kd is 10 to 100 µM. On to `COc1ccccc1N1CCC[C@@H](Nc2cc(N3CCOCC3)ncn2)C1` [I-15], for which the Kd is over 200 µM. For `OC[C@H]1CC[C@H](Nc2cc(N3CCCCC3)ccn2)CN1c1cccc(F)c1` [I-994] the value was 10 to 100 µM; for `Cc1sc2c(c1C)C(c1ccc(Cl)cc1)=N[C@@H](CC(=O)NCCOCCOCCOCCOCCOCCOCCn1ncc(C(=O)N[C@@H](CC(N)=O)c3cccc(Cl)c3)c1-c1ccccc1F)c1nnc(C)n1-2` [I-492], over 200 µM. As to `NC(=O)C[C@H](NC(=O)c1ccc(N)nc1-c1ccccc1F)c1cccc(Cl)c1` [I-588], the Kd is 10 to 100 µM. Regarding `NCC(=O)NCc1ccc(N2CCCCC2)cc1N[C@@H]1CCCN(c2cccc(F)c2)C1` [I-982], the Kd lay in the range of 10 to 100 µM. With `NC(=O)C[C@H](NC(=O)c1cn[nH]c1-c1c(F)cccc1C1CC1)c1cccc(Cl)c1` [I-590], the Kd is under 10 µM. Turning to `C=CC(=O)NC1CCC2(CC1)CCN(c1ccnc(N[C@@H]3CCCN(c4cccc(F)c4)C3)c1)CC2` [I-657], the dissociation constant Kd was under 10 µM. Consider `COCCn1ncc(C(=O)N[C@@H](CC(N)=O)c2cccc(Cl)c2)c1-c1ccccc1F` [I-88], for which the Kd was over 200 µM. Take `Fc1cccc([C@@H]2CCC[C@@H](Nc3nccc(N4CCOCC4)n3)C2)c1` [I-185]: the Kd is over 200 µM. On to `NC[C@H]1C[C@H](Nc2cc(N3CCCCC3)ccn2)CN(c2cccc(F)c2)C1` [I-1039], for which the Kd is 10 to 100 µM. Regarding `CS(=O)(=O)CCN(c1cc(N2CCOCC2)ccn1)[C@@H]1CCCN(c2cccc(F)c2)C1` [I-292], the Kd is over 200 µM.

Regarding `Fc1cccc(N2CCCC(Nc3nccc(N4CCCCC4)n3)C2)c1` (stereo not drawn) [I-27], the Kd was 100 to 200 µM. As for `Fc1cccc(N2C[C@@H](F)C[C@@H](Nc3cc(N4CCOCC4)ccn3)C2)c1` [I-541], the Kd lay within 100 to 200 µM.

As to `COCCOCC[C@@H]1CCCN(c2ccnc(N3CC[C@H]4[C@@H]3CCCN4c3cccc(F)c3)c2)C1` [I-714], the Kd was in the range of 10 to 100 µM. As to `c1cc(N2CCOCC2)cc(N[C@@H]2CCCN(c3nccc(N4CCCC4)n3)C2)n1` [I-678], the Kd was 10 to 100 µM. As for `NC(=O)C[C@H](NC(=O)c1cnn(CCc2ccccc2)c1-c1ccccc1F)c1cccc(Cl)c1` [I-170], the figure is over 200 µM; as for `c1ccc2c(c1)nc(N1CCC[C@@H](Nc3cc(N4CCOCC4)ccn3)C1)c1nnnn12` [I-423], over 200 µM; as for `O=C(N[C@@H](CC(=O)N1CCNCC1)c1cccc(Cl)c1)c1cn[nH]c1-c1ccccc1F` [I-787], under 10 µM. For `c1ccc2c(N3CCC[C@@H](Nc4cc(N5CCOCC5)ncn4)C3)cccc2c1` [I-388] the value was over 200 µM.

Consider `NCCCCCCCCCCCCCCCCCCCCC1CCN(c2ccnc(N3CC[C@@H]4[C@H]3CCCN4c3cccc(F)c3)c2)CC1` [I-745], for which the Kd was over 200 µM.

Regarding `O=C1NCCN1Cc1cccc(N2CCC[C@H]3[C@@H]2CCN3c2cc(N3CCCCC3)ccn2)c1` [I-960], the Kd is under 10 µM. In the case of `N#Cc1ccc(N2CCC[C@@H](Nc3cc(N4CCOCC4)ccn3)C2)cc1` [I-774], the Kd was over 200 µM.

As for `C[C@H]1CCCCN1c1ccnc(N2CC[C@@H]3[C@H]2CCCN3c2cccc(F)c2)c1` [I-643], the Kd was under 10 µM. In the case of `NC(=O)N1Cc2ccc(N3CCC[C@H]4[C@@H]3CCN4c3cc(N4CCCCC4)ccn3)cc2C1` [I-956], the Kd was under 10 µM.

Take `Fc1cccc(N2CCC[C@H]3[C@@H]2CCN3c2cc(N3CCCCCC3)ccn2)c1` [I-636]: the Kd is under 10 µM. As for `NC(=O)C[C@H](NS(=O)(=O)c1c[nH]nc1-c1ccccc1F)c1cccc(Cl)c1` [I-252], the figure is over 200 µM; as for `OC[C@@H]1CCN(c2cccc(F)c2)C[C@H]1Nc1cc(N2CCCCC2)ccn1` [I-990], 10 to 100 µM; as for `C=CC(=O)Nc1n[nH]cc1C(=O)N[C@@H](CC(N)=O)c1cccc(Cl)c1` [I-308], over 200 µM. For the compound `CNC1CN(C(=O)C[C@H](NC(=O)c2cn[nH]c2-c2c(F)ccc(F)c2C)c2cccc(Cl)c2)C1` [I-880], the Kd is under 10 µM. For `CNC(=O)C[C@H](NC(=O)c1cn[nH]c1-c1ccccc1F)c1cccc(Cl)c1` [I-79], the Kd is 10 to 100 µM. For `C=CC(=O)NC1CC2(CCN(c3ccnc(N[C@@H]4CCCN(c5cccc(F)c5)C4)c3)CC2)C1` [I-652], the Kd is under 10 µM. Turning to `CC1CCN(c2ccnc(N[C@@H]3CCCN(c4cccc(F)c4)C3)c2)CC1` [I-571], the Kd lay within 10 to 100 µM.

With `Fc1cccc([C@@H]2CCC[C@@H](Nc3cc(N4CCOCC4)ccn3)C2)c1` [I-184], the Kd is over 200 µM.

Consider `NC(=O)C[C@@]1(NC(=O)c2c[nH]nc2-c2ccccc2F)CCCc2cc(Cl)ccc21` [I-241], for which the Kd was over 200 µM. For `CC(C)n1cc(C(=O)N[C@@H](CC(N)=O)c2cccc(Cl)c2)c(-c2ccccc2F)n1` [I-138] the value was 10 to 100 µM; for `Cc1c(N2CCOCC2)ccnc1N[C@@H]1CCCN(c2cccc(F)c2)C1` [I-516], 10 to 100 µM; for `Fc1cccc(N2CCCC(C3(c4cc(N5CCOCC5)ccn4)CC3)C2)c1` (stereo not drawn) [I-259], over 200 µM. For `NCCCc1ccc(N2CCC[C@@H](Nc3cc(N4CCOCC4)ccn3)C2)cc1` [I-856] the value was 10 to 100 µM. For `NC(=O)C[C@H](NC(=O)c1c[nH]cc1-c1ccccc1F)c1cccc(Cl)c1` [I-90] the value was under 10 µM. With `CS(=O)(=O)CCc1ccc(F)c(-c2[nH]ncc2C(=O)N[C@H](CC(N)=O)c2cccc(Cl)c2)c1` [I-531], the Kd was over 200 µM. For `NC(=O)C[C@@]1(NC(=O)c2cn[nH]c2-c2ccccc2F)CCc2ccc(Cl)cc21` [I-361] the value was over 200 µM; for `Cc1c(F)ccc(F)c1-c1[nH]ncc1C(=O)N[C@H](c1cccc(Cl)c1)C1CCCS1(=O)=O` (stereo partly drawn) [I-999], 10 to 100 µM; for `Cc1cc(Cl)cc(C)c1-c1c(C(=O)N[C@@H](CC(N)=O)c2cccc(Cl)c2)c[nH]c1C(=O)c1ccccc1` [I-969], under 10 µM. Turning to `Cc1c(F)ccc(F)c1-c1cn(C)cc1C(=O)N[C@@H](CC(N)=O)c1cccc(Cl)c1` [I-924], the Kd is under 10 µM. On to `c1ccc2nc(N3CCC[C@@H](Nc4cc(N5CCOCC5)ncn4)C3)ccc2c1` [I-397], for which the Kd is over 200 µM.

`C=CC(=O)Nc1ccnc(N[C@@H]2CCCN(c3cccc(F)c3)C2)c1` [I-447]: the Kd fell in the range of 10 to 100 µM. `COC[C@@](CC(N)=O)(NC(=O)c1c[nH]nc1-c1ccccc1F)c1cccc(Cl)c1` [I-265]: the Kd was over 200 µM. As for `N#Cc1ncccc1N1CCC[C@@H](Nc2cc(N3CCOCC3)ccn2)C1` [I-424], the figure is over 200 µM; as for `NC(=O)C[C@H](NC(=O)c1cnn(C(=O)c2ccncn2)c1-c1ccccc1F)c1cccc(Cl)c1` [I-174], over 200 µM. `c1ccc(-n2cnc3cc(N4CCC[C@@H](Nc5cc(N6CCOCC6)ccn5)C4)ccc32)cc1` [I-688]: the Kd is over 200 µM.
